We go through 18 compounds from PubChem BioAssay (NCI).

SMILES strings stand for the structures.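 Step 1: Grow cells in 96-well plates. Step 2: Expose to compound for 48 hours at 5 concentrations. Step 3: Interpolate endpoints linearly; if unreached, use highest concentration. Here, GI50 denotes the concentration required for 50% inhibition of growth. At the TGI there is no net growth.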 Some results are limits rather than exact numbers.

Holding throughout (assay): NCI-60 cell line screen, 48 h
The test system of assay [1] is A498 renal.
For assay [2], the system named is CAKI-1 renal.
Assay [3] concerns SW-620 colon.
In assay [4] the test system is A549 NSCLC.
The subject of assay [5] is HCT-15 colon.
Assay [6] has as its system BT-549 breast.
For assay [7], the system named is SN12C renal.
The subject of assay [8] is MOLT-4 leukemia.
Assay [9] concerns DU-145 prostate.
Assay [10] has as its system PC-3 prostate.

Consider `C[C@]12Cc3cnc(-c4ccccc4)nc3C[C@@H]1CC[C@@H]1[C@@H]2CC[C@@]2(C)[C@H]1CC[C@]2(C)O`, for which the TGI is 43.2 µM in assay [1]; 16.6 µM in assay [2]; over 100 µM in assay [3]; 57.6 µM in assay [4]; over 63.2 µM in assay [5]; 54.6 µM in assay [6]. The TGI is 57.3 µM in assay [7], over 100 µM in assay [8], 44.1 µM in [9] and 36.3 µM in [10].
For the compound `O=C1CCCC/C1=C1/SC(=Nc2ccccc2)C(=Nc2ccccc2)N1c1ccccc1`, the TGI in [1], in assay [2], in [5], in assay [6], in assay [7] and in assay [8] was over 100 µM in each case. The same compound came in with a TGI in assay [9] of over 100 µM.
Take `O=NN1C(c2ccccc2)C2CCCC(C2=O)C1c1ccccc1` (stereo not given): the TGI was over 94.1 µM in [1]; 94.1 µM in [2]; over 100 µM in assay [3]; over 100 µM in assay [4]; over 87.7 µM in assay [5]; 69.9 µM in [7]. The compound further displayed a TGI in assay [8] of over 78.1 µM.
Take `O=C(O)C(O)(c1ccc(-c2ccccc2)cc1)c1ccc(-c2ccccc2)cc1`: the TGI in [1] was 43.5 µM; in assay [2], over 100 µM; in assay [3], over 100 µM; in assay [4], over 100 µM; in assay [5] it was 41.5 µM; in assay [6] it was 42.7 µM. In addition, the TGI in [7] was 60.7 µM; in assay [8] it was over 100 µM; in assay [9] it was 40.6 µM; in assay [10], 70 µM.
As for `COC1CC(OC2CCC3(C)C(=CCC4C3C(OC(C)=O)C(OC(=O)CC(C)C)C3(C)C(C(C)=O)CCC43O)C2)OC(C)C1OC1CC(OC)C(OC2CC(OC)C(OC3OC(C)C(O)C(OC)C3O)C(C)O2)C(C)O1` (stereo not given), the TGI was over 100 µM in assay [1]; over 100 µM in assay [2]; 94.7 µM in assay [3]; over 100 µM in assay [4]; over 100 µM in [5]; 69.6 µM in assay [6]. The TGI is over 100 µM in assay [7], 45.6 µM in assay [8], over 100 µM in [9] and over 100 µM in assay [10].
As to `COc1ccc(NC(=S)NNC(=O)c2nsc3ccccc23)cc1`, the TGI in assay [3] is over 100 µM; in assay [4], over 100 µM; in assay [5], over 100 µM; in [7], over 100 µM; in [8] it was 87.8 µM.
`COc1ccc(C(=O)NC2=C(Cl)C(=O)c3ccccc3C2=O)cc1`: the TGI was 27.7 µM in assay [1]; 6.94 µM in assay [2]; 3.45 µM in assay [3]; over 36.7 µM in assay [4]; 11 µM in assay [5]; 9.64 µM in assay [6]. The TGI was 9.46 µM in [7], over 22 µM in [8], 15.2 µM in assay [9] and 10.8 µM in assay [10].
Turning to `Clc1ccc(C2CC(c3cccc(Nc4ccncc4)c3)=NN2c2ccc(Cl)cc2)cc1` (stereo not given), the GI50 in [1] is 1.56 µM; in [2], 1.46 µM; in assay [3], 1.8 µM; in assay [5], 1.55 µM; in assay [8], 2.18 µM; in [9], 1.88 µM. Besides, in assay [10], the GI50 is 1.55 µM. In addition, the TGI was 2.94 µM in assay [1]; 2.79 µM in [2]; 3.6 µM in assay [3]; 2.95 µM in assay [5]; 5.52 µM in [8]; 3.49 µM in [9]. This compound had a TGI in [10] of 3.08 µM.
In the case of `Nc1c(OCC(=O)O)ccc2cc(S(=O)(=O)O)ccc12`, the TGI in assay [1], in assay [2], in assay [3], in [4], in assay [5] and in assay [6] was over 100 µM each time. The TGI in assay [7], in [9] and in assay [10] was over 100 µM each time.
Take `Clc1cc2ccccc2c2ccccc12`: the TGI in [1] is over 100 µM; in assay [2] it was over 100 µM; in assay [3], over 100 µM; in [4] it was over 100 µM; in assay [5] it was over 100 µM; in assay [6] it was 96.7 µM. Besides, the TGI in assay [7], in assay [8], in [9] and in assay [10] was over 100 µM throughout.
On to `c1ccc2c(c1)OCCc1cn[nH]c1-2`, for which the TGI in [1] is over 100 µM; in [2], 87.9 µM; in [3] it was over 100 µM; in assay [4], over 100 µM; in assay [5] it was over 100 µM; in [7] it was over 100 µM. Further, in assay [8], the TGI is over 100 µM.
In the case of `CCOC(=O)c1nc2ccccc2n(CC)c1=O`, the TGI in [1], in [2], in assay [3], in [4], in assay [5] and in [6] was over 100 µM throughout. Also, the TGI in assay [7], in assay [8], in assay [9] and in [10] was over 100 µM in each case.
With `CC[C@@]1(OC(=O)CN(C)C)C(=O)OCc2c1cc1n(c2=O)Cc2cc3c(N)cccc3nc2-1`, the GI50 in [1] is 0.0208 µM; in assay [2], under 0.01 µM; in assay [3], 0.0181 µM; in assay [4] it was 0.0575 µM; in assay [5] it was 0.317 µM; in [6], 0.0634 µM. Also, the figures for the GI50 in assay [8], in assay [9] and in assay [10] were under 0.01 µM, 0.0115 µM and 0.0524 µM, respectively. The TGI in assay [1] was 0.0987 µM; in [2] it was 0.0537 µM; in [3] it was 2.57 µM; in [4], 1.37 µM; in assay [5], over 100 µM; in assay [6] it was over 100 µM. For the same compound, the TGI was 0.211 µM in assay [8], 0.081 µM in assay [9] and over 100 µM in assay [10].
`OC(c1ccc(Cl)cc1)(c1ccc(Cl)cc1)c1cncnc1`: the TGI in assay [1] was determined as 47.6 µM; in [2] it was 36.2 µM; in assay [3], 55.4 µM; in [5] it was 39.8 µM; in [6] it was 42 µM; in assay [7], 80.3 µM. For the same compound, the TGI in assay [8] turned out to be 52.3 µM; in assay [9], 59.8 µM; in [10], 31.7 µM.
For the compound `CN(C)CCCNc1ccc2nnn3c4ccc(OC(=O)c5ccccc5)cc4c(=O)c1c23`, the TGI in [1] was 25.4 µM; in [2], 10.7 µM; in assay [3], 21.2 µM; in [4] it was 23.7 µM; in assay [5] it was 33.7 µM; in assay [6], 32.7 µM. Besides, the TGI was determined as 25.4 µM in assay [7], 9.41 µM in [8], 22.9 µM in assay [9] and 23.8 µM in assay [10].
Consider `CN(CCO)Cc1ncccc1O`, for which the TGI in assay [1], in assay [2], in assay [3], in assay [4], in assay [5] and in assay [6] was over 100 µM each time. Also, the TGI is 89.5 µM in assay [8], over 100 µM in [9] and over 100 µM in [10].
`COc1cc2c(cc1OC)C1c3ccccc3CCN1CCC2` (stereo not given): the TGI in assay [2] was over 100 µM; in assay [3], over 100 µM; in assay [4] it was over 100 µM; in assay [5] it was over 100 µM; in [6], 81.4 µM; in assay [7], over 100 µM. For the same compound, the TGI in assay [8], in assay [9] and in assay [10] was over 100 µM in each case.
For `NC1C=NNC1=O` (stereo not given), the TGI in assay [2], in assay [3], in assay [4], in [5], in assay [7] and in [8] was over 100 µM throughout.
